Source: ChEMBL document CHEMBL1781876, “Design, synthesis and inhibition activity of a novel cyclic enediyne amino acid conjugates against MPtpA” (Bioorg Med Chem, 2011)

Target: T1, Low molecular weight protein-tyrosine phosphatase A (Mycobacterium tuberculosis, UniProt P9WIA1)
T1 sequence (P9WIA1 whole entry): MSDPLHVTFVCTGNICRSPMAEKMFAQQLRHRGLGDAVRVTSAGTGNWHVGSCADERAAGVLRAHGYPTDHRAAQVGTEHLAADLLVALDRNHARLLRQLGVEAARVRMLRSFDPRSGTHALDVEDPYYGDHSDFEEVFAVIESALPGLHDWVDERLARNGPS
Assay: Non-competitive inhibition of Mycobacterium tuberculosis PTPA using p-nitrophenyl phosphate as substrate by Lineweaver-Burk plot analysis

O=C(O)/C1=C/C#Cc2ccccc2C#CCCNC1=O
IC50: 110 µM | Ki: 22.5 µM

O=C(O)C1CCCc2ccccc2CCCCNC1=O (racemic)
IC50: 236 µM | Ki: 101 µM
